According to PubChem BioAssay AID248 (DTP/NCI, 2004):
“And” between values parts separate entries of the source, which are not always exact repeats. Identical values can stand only once. Toxic doses and inconclusive results are not listed. Rule as the data show it: active = T/C of 150% or more; inactive = T/C below 125%.

Tested on: L1210 leukemia ip in BDF1 mice, survival T/C
Assay: NCI In Vivo Anticancer Drug Screen. Data for tumor model L1210 Leukemia (intraperitoneal) in B6D2F1 (BDF1) mice
Conditions: endpoint: mean survival time, higher = longer survival
In short: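 Antitumor effect is assessed in tumor-bearing animals. Survival in the compound arm is compared with a vehicle-dosed control arm and expressed as their quotient.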

[1] = dose: 100.0 mg/kg/injection, schedule: Q04DX003 (ip), vehicle: saline
[2] = dose: 100.0 mg/kg/injection, schedule: Q01DX009 (ip), vehicle: Klucel (hydroxypropylcellulose) (HPC)
[3] = dose: 100.0 mg/kg/injection, schedule: Q04DX002 (ip), vehicle: Klucel (hydroxypropylcellulose) (HPC)
[4] = dose: 200.0 mg/kg/injection, schedule: Q01DX009 (ip), vehicle: Klucel (hydroxypropylcellulose) (HPC)
[5] = dose: 200.0 mg/kg/injection, schedule: Q04DX002 (ip), vehicle: Klucel (hydroxypropylcellulose) (HPC)
[6] = dose: 400.0 mg/kg/injection, schedule: Q01DX009 (ip), vehicle: Klucel (hydroxypropylcellulose) (HPC)
[7] = dose: 400.0 mg/kg/injection, schedule: Q04DX002 (ip), vehicle: Klucel (hydroxypropylcellulose) (HPC)
[8] = dose: 100.0 mg/kg/injection, schedule: Q04DX003 (ip), vehicle: Klucel (hydroxypropylcellulose) (HPC)
[9] = dose: 100.0 mg/kg/injection, schedule: Q01DX001 (ip), vehicle: carboxymethylcellulose (CMC)
[10] = dose: 200.0 mg/kg/injection, schedule: Q01DX001 (ip), vehicle: carboxymethylcellulose (CMC)
[11] = dose: 400.0 mg/kg/injection, schedule: Q01DX001 (ip), vehicle: carboxymethylcellulose (CMC)
[12] = dose: 100.0 mg/kg/injection, schedule: Q01DX009 (ip), vehicle: saline with Tween-80
[13] = dose: 100.0 mg/kg/injection, schedule: Q04DX003 (ip), vehicle: saline with Tween-80
[14] = dose: 200.0 mg/kg/injection, schedule: Q01DX009 (ip), vehicle: saline with Tween-80
[15] = dose: 200.0 mg/kg/injection, schedule: Q04DX003 (ip), vehicle: saline with Tween-80
[16] = dose: 400.0 mg/kg/injection, schedule: Q01DX009 (ip), vehicle: saline with Tween-80
[17] = dose: 400.0 mg/kg/injection, schedule: Q04DX003 (ip), vehicle: saline with Tween-80

Measured: T/C

CN1CC(C(=O)N2CCCCC2)C=C2c3cccc4[nH]cc(c34)CC21 (stereo not given)
inactive: dose: 3.12 mg/kg/injection, schedule: Q01DX009 (ip), vehicle: saline 95 % of control | dose: 6.25 mg/kg/injection, schedule: Q01DX009 (ip), vehicle: saline 97 % of control | dose: 12.5 mg/kg/injection, schedule: Q01DX009 (ip), vehicle: saline 98 % of control | dose: 25.0 mg/kg/injection, schedule: Q01DX009 (ip), vehicle: saline 104 % of control | dose: 25.0 mg/kg/injection, schedule: Q04DX003 (ip), vehicle: saline 100 % of control | dose: 50.0 mg/kg/injection, schedule: Q01DX009 (ip), vehicle: saline 93 % of control | dose: 50.0 mg/kg/injection, schedule: Q04DX003 (ip), vehicle: saline 98 % of control | [1] 97 % of control

CS(=O)(=O)OC1CCC(OS(C)(=O)=O)CC1 (stereo not given)
inactive: dose: 100.0 mg/kg/injection, schedule: Q01DX001 (ip), vehicle: saline with Tween-80 103 % of control | dose: 200.0 mg/kg/injection, schedule: Q01DX001 (ip), vehicle: saline with Tween-80 100 % of control | dose: 400.0 mg/kg/injection, schedule: Q01DX001 (ip), vehicle: saline with Tween-80 100 % of control

Cc1noc(NC(=O)Nc2ccccc2C(F)(F)F)c1C
inactive: [2] 95 % of control and 103 % of control | [3] 92 % of control and 97 % of control | [4] 92 % of control and 118 % of control | [5] 101 % of control and 119 % of control | [6] 101 % of control | [7] 105 % of control and 116 % of control

COC(=O)c1cncn1C(C)c1cccc2ccccc12 (stereo not given)
inactive: dose: 25.0 mg/kg/injection, schedule: Q04DX003 (ip), vehicle: Klucel (hydroxypropylcellulose) (HPC) 96 % of control | dose: 50.0 mg/kg/injection, schedule: Q04DX003 (ip), vehicle: Klucel (hydroxypropylcellulose) (HPC) 102 % of control | [8] 101 % of control and 103 % of control

CCOC(=O)C(F)=C(CF)CF
inactive: dose: 50.0 mg/kg/injection, schedule: Q01DX001 (ip), vehicle: carboxymethylcellulose (CMC) 105 % of control | [9] 111 % of control | [10] 109 % of control | [11] 94 % of control

Cc1n[nH]c(C)c1N=NN1CCOCC1
inactive: dose: 10.0 mg/kg/injection, schedule: Q01DX001 (ip), vehicle: saline 100 % of control and 107 % of control | dose: 20.0 mg/kg/injection, schedule: Q01DX001 (ip), vehicle: saline 107 % of control and 124 % of control | dose: 30.0 mg/kg/injection, schedule: Q01DX001 (ip), vehicle: saline 105 % of control

COc1ccc([N+](=O)[O-])c2c1CONC2c1c(CO)cnc(C)c1O (stereo not given)
inactive: dose: 100.0 mg/kg/injection, schedule: Q04DX003 (ip), vehicle: acetone 90 % of control | dose: 200.0 mg/kg/injection, schedule: Q04DX003 (ip), vehicle: acetone 96 % of control | dose: 400.0 mg/kg/injection, schedule: Q04DX003 (ip), vehicle: acetone 89 % of control

Cc1cccc(NC(=S)Nc2ccccc2)c1C
inactive: [3] 94 % of control | [5] 105 % of control | [7] 101 % of control

N#CCN1C(=O)c2ccccc2S1(=O)=O
inactive: dose: 222.0 mg/kg/injection, schedule: Q01DX Z (ip), vehicle: methylcellulose (MC) 110 % of control | dose: 333.0 mg/kg/injection, schedule: Q01DX Z (ip), vehicle: methylcellulose (MC) 113 % of control | dose: 500.0 mg/kg/injection, schedule: Q01DX Z (ip), vehicle: methylcellulose (MC) 102 % of control

CCCNC(=O)Nc1cc(Cl)ccc1OC
inactive: [12] 100 % of control | [13] 95 % of control | [14] 94 % of control | [15] 103 % of control | [16] 96 % of control | [17] 94 % of control

CCOC(=O)c1ccc(NC(=O)Oc2ccccc2C(C)C)cc1
inactive: [12] 97 % of control and 107 % of control | dose: 100.0 mg/kg/injection, schedule: Q04DX002 (ip), vehicle: saline with Tween-80 101 % of control | [13] 97 % of control | [14] 93 % of control and 97 % of control | dose: 200.0 mg/kg/injection, schedule: Q04DX002 (ip), vehicle: saline with Tween-80 92 % of control | [15] 93 % of control | [16] 89 % of control | dose: 400.0 mg/kg/injection, schedule: Q04DX002 (ip), vehicle: saline with Tween-80 92 % of control | [17] 102 % of control

Cc1cc(N(CCCl)CCCl)ccc1C=NC1CCCC1
inactive: [9] 102 % of control | [10] 105 % of control | [11] 118 % of control

CC(=O)c1ccc(N=C(N)N=C(N)N)cc1
inactive: dose: 75.0 mg/kg/injection, schedule: Q01DX001 (ip), vehicle: carboxymethylcellulose (CMC) 110 % of control | dose: 150.0 mg/kg/injection, schedule: Q01DX001 (ip), vehicle: carboxymethylcellulose (CMC) 93 % of control

O=C(Cc1cnccn1)c1ccc(C(=O)Cc2cnccn2)cc1
inactive: dose: 100.0 mg/kg/injection, schedule: Q04DX003 (ip), vehicle: carboxymethylcellulose (CMC) 94 % of control | dose: 200.0 mg/kg/injection, schedule: Q04DX003 (ip), vehicle: carboxymethylcellulose (CMC) 103 % of control | dose: 400.0 mg/kg/injection, schedule: Q04DX003 (ip), vehicle: carboxymethylcellulose (CMC) 102 % of control

NCCc1cnc(N=Nc2ccc(S(=O)(=O)N(CCCl)CCCl)cc2)[nH]1
inactive: [13] 93 % of control | [15] 86 % of control | [17] 89 % of control

O=S(=O)(O)c1cc(O)c2ccc(NNC(O)c3ccc(Cl)c(Cl)c3)cc2c1 (stereo not given)
inactive: [1] 87 % of control | dose: 200.0 mg/kg/injection, schedule: Q04DX003 (ip), vehicle: saline 96 % of control | dose: 400.0 mg/kg/injection, schedule: Q04DX003 (ip), vehicle: saline 98 % of control

CC(=O)N(C)c1ccc(NC(=O)c2c(Br)c(Br)c(Br)c(Br)c2C(=O)O)cc1
inactive: [2] 98 % of control | [4] 89 % of control | [6] 105 % of control

O=c1[nH]c(=O)c2nc[nH]c(=O)c2[nH]1
inactive: dose: 75.0 mg/kg/injection, schedule: Q01DX009 (ip), vehicle: Klucel (hydroxypropylcellulose) (HPC) 98 % of control | [8] 118 % of control | dose: 150.0 mg/kg/injection, schedule: Q01DX009 (ip), vehicle: Klucel (hydroxypropylcellulose) (HPC) 97 % of control | dose: 200.0 mg/kg/injection, schedule: Q04DX003 (ip), vehicle: Klucel (hydroxypropylcellulose) (HPC) 94 % of control | dose: 400.0 mg/kg/injection, schedule: Q04DX003 (ip), vehicle: Klucel (hydroxypropylcellulose) (HPC) 100 % of control

CC1(C)CC(C)(c2ccc(O)cc2)Oc2ccccc21 (stereo not given)
inactive: [13] 93 % of control | [15] 89 % of control

O=C(NCCCCCCCCCCCCNC(=O)Nc1ccc(C2=NCC(O)CN2)cc1)Nc1ccc(C2=NCC(O)CN2)cc1 (stereo not given)
inactive: dose: 62.5 mg/kg/injection, schedule: Q01DX Z (ip), vehicle: carboxymethylcellulose (CMC) 113 % of control | dose: 250.0 mg/kg/injection, schedule: Q01DX Z (ip), vehicle: carboxymethylcellulose (CMC) 122 % of control

COc1ccc2cc(C)ncc2c1
inactive: dose: 100.0 mg/kg/injection, schedule: Q01DX001 (ip), vehicle: saline 96 % of control | dose: 200.0 mg/kg/injection, schedule: Q01DX001 (ip), vehicle: saline 91 % of control | dose: 400.0 mg/kg/injection, schedule: Q01DX001 (ip), vehicle: saline 91 % of control
